# Reference: ChEMBL document CHEMBL5154943, “Crystallography-Guided Optimizations of the Keap1-Nrf2 Inhibitors on the Solvent Exposed Region: From Symmetric to Asymmetric Naphthalenesulfonamides” (J Med Chem, 2022)
# Activity calls are given as the source filed them. The rule behind the calls is not given here.
# How the values were obtained:
# Peritoneal macrophage [1] = test: Antiinflammatory activity against LPS-induced mouse peritoneal macrophage assessed as suppression of ROS level at 10 uM pretreated with LPS followed by compound addition and measured after 6 hrs by DCFH-DA staining based fluorescence analysis; format: functional, cell-based
# Peritoneal macrophage [2] = test: Antiinflammatory activity against LPS-induced mouse peritoneal macrophage assessed as suppression of NO level at 10 uM pretreated with LPS followed by compound addition and measured after 24 hrs by Griess reagent based assay; format: functional, cell-based
# Mus musculus [3] = test: In vivo inhibition of Keap1-Nrf2 interaction in LPS-induced acute lung injury C57BL/6J mouse model assessed as increase in Nrf2 nuclear translocation in lungs by measuring increase in nuclear Nrf2 level treated intraperitoneally at 0.5 hrs before LPS stimulation by Western blot analysis; format: functional, organism-based; conditions: dose 5-20 mg/kg, route ip, DDE = dose-dependent effect
# Mus musculus [4] = test: In vivo inhibition of Keap1-Nrf2 interaction in LPS-induced acute lung injury C57BL/6J mouse model assessed as increase in Nrf2 nuclear translocation in lungs by measuring decrease in cytosolic Nrf2 level treated intraperitoneally at 0.5 hrs before LPS stimulation by Western blot analysis; format: functional, organism-based; conditions: dose 5-20 mg/kg, route ip, DDE = dose-dependent effect
# Mus musculus [5] = test: Antiinflammatory activity against ip dosed LPS-induced ALI C57BL/6J mouse model assessed as reduction in IL-6 mRNA expression in BALF administered 0.5 hr prior to LPS stimulation by RT-qPCR method; format: functional, organism-based; conditions: dose 5-20 mg/kg, DDE = dose-dependent effect
# Mus musculus [6] = test: Antiinflammatory activity against ip dosed LPS-induced ALI C57BL/6J mouse model assessed as reduction in TNF-alpha level in BALF administered 0.5 hr prior to LPS stimulation by ELISA method; format: functional, organism-based; conditions: dose 5-20 mg/kg, DDE = dose-dependent effect
# Mus musculus [7] = test: Antiinflammatory activity against ip dosed LPS-induced ALI C57BL/6J mouse model assessed as reduction in IL-6 level in BALF administered 0.5 hr prior to LPS stimulation by ELISA method; format: functional, organism-based; conditions: dose 5-20 mg/kg, DDE = dose-dependent effect
# Mus musculus [8] = test: Antiinflammatory activity against ip dosed LPS-induced ALI C57BL/6J mouse model assessed as reduction in TNF-alpha mRNA expression in BALF administered 0.5 hr prior to LPS stimulation by RT-qPCR method; format: functional, organism-based; conditions: dose 5-20 mg/kg, DDE = dose-dependent effect
# Mus musculus [9] = test: Antiinflammatory activity against ip dosed LPS-induced ALI C57BL/6J mouse model assessed as reduction in IL-1beta mRNA expression in BALF administered 0.5 hr prior to LPS stimulation by RT-qPCR method; format: functional, organism-based; conditions: dose 5-20 mg/kg, DDE = dose-dependent effect
# Peritoneal macrophage [10] = test: Antiinflammatory activity against LPS-induced mouse peritoneal macrophage assessed as inhibition of TNF alpha level at 10 uM after 4 hrs by ELISA method; format: functional, cell-based
# Mus musculus [11] = test: Antiinflammatory activity against ip dosed LPS-induced ALI C57BL/6J mouse model assessed as reduction in […] level in BALF administered 0.5 hr prior to LPS stimulation by ELISA method; format: functional, organism-based; conditions: dose 5-20 mg/kg, DDE = dose-dependent effect
# [12] = MRT(0 to 24 hrs) in Sprague-Dawley rat at 20 mg/kg, IG measured upto 24 hrs by LC-MS analysis; format: ADME, organism-based; conditions: in vivo, po
# [13] = Oral bioavailability in Sprague-Dawley rat at 20 mg/kg measured upto 24 hrs by LC-MS analysis; format: ADME, organism-based; conditions: in vivo
# [14] = Tmax in Sprague-Dawley rat at 20 mg/kg, IG measured for 24 hrs by LC-MS analysis; format: ADME, organism-based; conditions: in vivo, po
# [15] = MRT(0 to 24 hrs) in Sprague-Dawley rat at 5 mg/kg, iv measured upto 24 hrs by LC-MS analysis; format: ADME, organism-based; conditions: in vivo
# [16] = MRT (0 to infinity) in Sprague-Dawley rat at 20 mg/kg, IG measured upto 24 hrs by LC-MS analysis; format: ADME, organism-based; conditions: in vivo, po
# [17] = MRT(0 to infinity) in Sprague-Dawley rat at 5 mg/kg, iv measured upto 24 hrs by LC-MS analysis; format: ADME, organism-based; conditions: in vivo
# Keap1/Nrf2 = Keap1/Nrf2 (Homo sapiens, UniProt Q14145); test: Inhibition of recombinant N-terminal His6-tagged human Keap1-Nrf2 (322 to 609 residues) (unknown origin) protein-protein interaction expressed in Escherichia coli (DE3) incubated for 60 mins by fluorescence anisotropy assay
# Peritoneal macrophage [18] = test: Cytotoxicity against mouse peritoneal macrophages assessed as reduction in cell viability measured after 24 hrs by Cell Titer-Blue assay; format: functional
# [19] = AUC(0 to infinity) in Sprague-Dawley rat at 5 mg/kg, iv measured upto 24 hrs by LC-MS analysis; format: ADME, organism-based; design: dose 5 mg/kg, time < 24 hrs, route iv; conditions: in vivo
# [20] = Cmax in Sprague-Dawley rat at 5 mg/kg, iv measured upto 24 hrs by LC-MS analysis; format: ADME, organism-based; design: dose 5 mg/kg, time < 24 hrs, route iv; conditions: in vivo
# [21] = Tmax in Sprague-Dawley rat at 5 mg/kg, iv measured upto 24 hrs by LC-MS analysis; format: ADME, organism-based; conditions: in vivo
# [22] = AUC (0 to 24 hrs) in Sprague-Dawley rat at 5 mg/kg, iv measured upto 24 hrs by LC-MS analysis; format: ADME, organism-based; design: time < 24 hrs, dose 5 mg/kg, route iv; conditions: in vivo
# [23] = Antiinflammatory activity against LPS-induced mouse peritoneal macrophage assessed as suppression of NO level pretreated with LPS followed by compound addition and measured after 24 hrs by Griess reagent based assay; format: functional, cell-based
# [24] = Cmax in Sprague-Dawley rat at 20 mg/kg, IG measured upto 24 hrs by LC-MS analysis; format: ADME, organism-based; design: dose 20 mg/kg, time < 24 hrs, route ig; conditions: in vivo, po
# [25] = Aqueous solubility of the compound in PBS at pH 2 after 24 hrs by HPLC-UV analysis; format: physicochemical
# [26] = Aqueous solubility of the compound in PBS at pH 7.4 after 24 hrs by HPLC-UV analysis; format: physicochemical
# [27] = Half life in Sprague-Dawley rat at 5 mg/kg, iv measured upto 24 hrs by LC-MS analysis; format: ADME, organism-based; conditions: in vivo
# [28] = AUC (0 to 24 hrs) in Sprague-Dawley rat at 20 mg/kg, IG measured upto 24 hrs by LC-MS analysis; format: ADME, organism-based; design: time < 24 hrs, dose 20 mg/kg, route ig; conditions: in vivo, po
# [29] = Aqueous solubility of the compound in PBS at pH 7 after 24 hrs by HPLC-UV analysis; format: physicochemical
# [30] = Antiinflammatory activity against LPS-induced mouse peritoneal macrophage assessed as inhibition of TNF alpha level after 4 hrs by ELISA method; format: functional, cell-based
# [31] = AUC(0 to infinity) in Sprague-Dawley rat at 20 mg/kg, IG measured upto 24 hrs by LC-MS analysis; format: ADME, organism-based; design: dose 20 mg/kg, time < 24 hrs, route ig; conditions: in vivo, po
# [32] = Half life in Sprague-Dawley rat at 20 mg/kg, IG measured upto 24 hrs by LC-MS analysis; format: ADME, organism-based; conditions: in vivo, po
# Sequence of Keap1/Nrf2 (Q16236 whole entry, the tested form may be a part): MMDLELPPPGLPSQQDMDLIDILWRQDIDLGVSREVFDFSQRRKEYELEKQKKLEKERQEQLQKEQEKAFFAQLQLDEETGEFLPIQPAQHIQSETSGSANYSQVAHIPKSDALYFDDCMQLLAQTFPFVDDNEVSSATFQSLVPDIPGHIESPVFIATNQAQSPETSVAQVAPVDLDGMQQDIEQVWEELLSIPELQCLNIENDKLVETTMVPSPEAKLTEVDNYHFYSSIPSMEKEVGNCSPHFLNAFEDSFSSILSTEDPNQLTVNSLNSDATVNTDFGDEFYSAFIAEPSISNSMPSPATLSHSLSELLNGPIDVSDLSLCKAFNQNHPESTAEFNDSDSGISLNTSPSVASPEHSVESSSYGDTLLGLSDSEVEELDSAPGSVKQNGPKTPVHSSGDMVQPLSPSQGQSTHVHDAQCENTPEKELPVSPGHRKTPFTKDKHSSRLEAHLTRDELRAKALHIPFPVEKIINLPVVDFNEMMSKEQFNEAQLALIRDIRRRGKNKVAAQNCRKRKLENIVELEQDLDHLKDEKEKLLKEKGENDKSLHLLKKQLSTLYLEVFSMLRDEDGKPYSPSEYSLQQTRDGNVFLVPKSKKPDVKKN
# Sequence of Keap1/Nrf2 (Q14145 whole entry, the tested form may be a part): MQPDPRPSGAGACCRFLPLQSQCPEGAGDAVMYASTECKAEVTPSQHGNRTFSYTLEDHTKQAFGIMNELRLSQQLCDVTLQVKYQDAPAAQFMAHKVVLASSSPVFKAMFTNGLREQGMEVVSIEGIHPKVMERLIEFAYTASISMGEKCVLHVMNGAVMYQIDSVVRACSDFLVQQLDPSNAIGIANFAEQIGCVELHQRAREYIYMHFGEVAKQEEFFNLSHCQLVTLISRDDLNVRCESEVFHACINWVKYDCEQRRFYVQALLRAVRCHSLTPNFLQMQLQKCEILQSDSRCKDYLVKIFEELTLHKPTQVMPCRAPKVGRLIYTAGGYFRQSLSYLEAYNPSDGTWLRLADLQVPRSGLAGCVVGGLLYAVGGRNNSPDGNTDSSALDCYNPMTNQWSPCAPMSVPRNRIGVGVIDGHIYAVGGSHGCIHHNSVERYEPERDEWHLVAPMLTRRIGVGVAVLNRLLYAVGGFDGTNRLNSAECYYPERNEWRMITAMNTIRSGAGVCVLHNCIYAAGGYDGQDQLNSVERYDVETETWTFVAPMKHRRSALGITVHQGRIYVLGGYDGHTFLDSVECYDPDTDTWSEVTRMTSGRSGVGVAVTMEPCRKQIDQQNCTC
smiles,measurement,setting,value
CCN1CCN(CCC(=O)Nc2ccc(S(=O)(=O)N(CC(N)=O)c3ccc(N(CC(N)=O)S(=O)(=O)c4ccc(OC)cc4)c4ccccc34)cc2)CC1 [listing 1 of 2 here],Activity,Peritoneal macrophage [1],Active
same,Activity,Peritoneal macrophage [2],Active
same,Activity,Mus musculus [3],Dde
same,Activity,Mus musculus [4],Dde
same,Activity,Mus musculus [5],Dde
same,Activity,Mus musculus [6],Dde
same,Activity,Mus musculus [7],Dde
same,Activity,Mus musculus [8],Dde
same,Activity,Mus musculus [9],Dde
same,Activity,Peritoneal macrophage [10],Active
same,Activity,Mus musculus [11],Dde
CCN1CCN(CCC(=O)Nc2ccc(S(=O)(=O)N(CC(N)=O)c3ccc(N(CC(N)=O)S(=O)(=O)c4ccc(OC)cc4)c4ccccc34)cc2)CC1 [listing 2 of 2 here],MRT last at 24 h,[12],6.71 h
same,bioavailability,[13],19.9%
same,Tmax,[14],1.38 h
same,MRT last at 24 h,[15],4.64 h
same,MRT inf,[16],14 h
same,MRT inf,[17],5.94 h
same,Kd,Keap1/Nrf2,0.21 µM
same,CC50,Peritoneal macrophage [18],> 100 µM
same,AUC,[19],4.77924 µg·h/mL
same,Cmax,[20],2.63 µg/mL
same,Tmax,[21],0.72 h
same,AUC(0-t) at 24 h,[22],4.56 µg·h/mL
same,EC50,[23],0.97 µM
same,Cmax,[24],0.708 µg/mL
same,solubility at 24 h,[25],0.902 mg/mL
same,solubility at 24 h,[26],0.0493 mg/mL
same,t1/2,[27],4.31 h
same,AUC(0-t) at 24 h,[28],3.06 µg·h/mL
same,solubility at 24 h,[29],0.0911 mg/mL
same,EC50,[30],1.14 µM
same,AUC(0-inf),[31],3.7 µg·h/mL
same,half-life,[32],10.9 h
